Laboratory results published in US9988405B2, “O-phenyl chalcone compounds and uses thereof” (Neopanora Bio-technology (Zhuhai) Ltd., priority 2014, dated 2018).

Tests used:
Assay type in all cases: cell-based
[1] = tested on: cis-platinum resistant human lung cancer cell A549/CDDP; experiment: SRB anti-proliferative assay, drug-resistant A549/CDDP; conditions: cis-platinum resistant A549/CDDP, SRB, read-out: Anti-proliferative IC50, A549/CDDP
Procedure: (§1) The present example evaluated the anti-tumor activity of the molecules provided by the present invention. The present example mainly used a method with SRB (sulforhodamine B) dying, in which proteins in the cell were stained with SRB dye to determine protein content in the cell so as to characterize cell growth density. Firstly, the test compound was formulated into a stock solution (10 mM), which was stored at 4° C. in a refrigerator. Prior to beginning the assay, the stock solution was diluted with DMSO into a series of different concentrations. The required concentrations were obtained by diluting with complete growth medium. Well growing cells were seeded in a 96-well plate (5000 cells/well, 100 uL) and cultured in an incubator at 37° C., 5% CO2, and 90% RH. 24 h later, the prepared compound solution (100 μL) was slowly added to cell solution in the 96-well plate, and the well with DMSO (final concentration 0.5%) instead of the drug was used as a drug free control. The plate was incubated for 48 h. In addition, a day 0 plate that was drug free was directly detected after cell seeded in the plate for 24 h. The 96-well plate was taken out and added with trichloroacetic acid (50 μL, final concentration 10%). The plate was incubated at 4° C. for 1 h to fix the cells.
(§2) The plate was washed with ultrapure water and air-dried. The plate was then stained with SRB dye (0.4% in 1% acetic acid, 100 μL) for 30 min at room temperature. The plate was then washed with 1% acetic acid and then air-dried. A Tris base solution (100 μL, 10 mM, pH10.4) was added, after which the plate was gently shaken for 1 h on an orbital shaker to ensure that the dyes were completed dissolved. The optical density (OD) was recorded on a TECAN Infinite M200 Pro multimode reader at 515 nm. The cell growth (% of control)=(OD value of wells added with drug−mean OD value of Day 0 plate)/(OD value of DMSO drug-free control well−mean OD value of Day 0 plate)*100.
(§3) We also evaluated the anti-proliferation activities of selected compounds against drug-resistant cancer cell lines.

[2] = tested on: Paclitaxel-resistant human ovarian carcinoma cell A2780/TAX; experiment: SRB anti-proliferative assay, drug-resistant A2780/TAX; conditions: paclitaxel-resistant A2780/TAX, SRB, read-out: Anti-proliferative IC50, A2780/TAX
Procedure: as §1, §2, §3

[3] = tested on: incristine resistant human ileocecum carcinoma cell HCT-8/VCT; experiment: SRB anti-proliferative assay, drug-resistant HCT-8/VCT; conditions: HCT8/VCT, vincristine-resistant HCT-8/VCT, SRB, read-out: Anti-proliferative IC50, HCT-8/VCT
Procedure: as §1, §2, §3

[4] = tested on: human ovary cancer cells A2780; experiment: SRB anti-proliferative assay, A2780; conditions: A2780, SRB, 48 h, read-out: Anti-proliferative IC50, A2780
Procedure: as §1, §2

[5] = tested on: doxorubicin resistant breast cancer cell MCF-7/DOX; experiment: SRB anti-proliferative assay, drug-resistant MCF-7/DOX; conditions: Homo sapiens, MCF7-DOX; doxorubicin resistant MCF-7/DOX, SRB; read-out: Anti-proliferative IC50, MCF-7/DOX
Procedure: as §1, §2, §3

[6] = tested on: human colon cancer cells SW480; experiment: SRB anti-proliferative assay, SW480; conditions: SW480, SRB, 48 h, read-out: Anti-proliferative IC50, SW480
Procedure: as §1, §2

[7] = tested on: human liver cancer cell HepG2; experiment: SRB anti-proliferative assay, HepG2; conditions: HepG2, SRB, 48 h, read-out: Anti-proliferative IC50, HepG2
Procedure: as §1, §2

[8] = tested on: human colon cancer cells HCT8; experiment: SRB anti-proliferative assay, HCT-8; conditions: HCT-8, SRB, 48 h, read-out: Anti-proliferative IC50, HCT-8
Procedure: as §1, §2

[9] = tested on: human nasopharyngeal carcinoma cells CNE2; experiment: SRB anti-proliferative assay, CNE2; conditions: CNE-2, CNE2, SRB, 48 h, read-out: Anti-proliferative IC50, CNE2
Procedure: as §1, §2

[10] = tested on: human breast cancer cells MCF7; experiment: SRB anti-proliferative assay, MCF-7; conditions: MCF7, MCF-7, SRB, 48 h, read-out: Anti-proliferative IC50, MCF-7
Procedure: as §1, §2

[11] = tested on: human lung cancer cells A549; experiment: SRB anti-proliferative assay, A549; conditions: A549, SRB, 48 h, read-out: Anti-proliferative IC50, A549
Procedure: as §1, §2

`O=C(/C=C/c1ccc(N2CCCC2)cc1)c1ccccc1-c1cccc(F)c1` [compound 16, (E)-1-(3′-Fluoro[1,1′-biphenyl]-2-yl)-3-(4-pyrrolidine-1-yl)prop-2-en-1-one] was tested, and the IC50 [1] was 0.135 µM, the IC50 [2] was 0.149 µM and the IC50 [3] was 0.166 µM. It also gave an IC50 [4] of 0.106 µM, an IC50 [5] of 0.075 µM and an IC50 [6] of 0.052 µM. It also gave an IC50 [7] of 0.071 µM, an IC50 [8] of 0.123 µM and an IC50 [9] of 0.036 µM. For the same compound, the IC50 [10] was 0.106 µM and the IC50 [11] was 0.086 µM.

`CN(C)c1ccc(/C=C/C(=O)c2ccccc2-c2cccc(F)c2)cc1Br` [compound 15, (E)-1-(3′-Fluoro[1,1′-biphenyl]-2-yl)-3-(3-bromo-4-(Dimethylamino)phenyl)prop-2-en-1-one] showed an IC50 [1] of 0.118 µM, an IC50 [2] of 0.095 µM and an IC50 [3] of 0.112 µM. The IC50 [4] was 0.089 µM, the IC50 [5] was 0.075 µM and the IC50 [6] was 0.087 µM. The IC50 [7] was 0.044 µM, the IC50 [8] was 0.099 µM and the IC50 [9] was 0.046 µM. It also gave an IC50 [10] of 0.124 µM and an IC50 [11] of 0.088 µM.

`CN(C)c1ccc(/C=C/C(=O)c2ccccc2-c2cccc(F)c2)cc1` [compound 7, (E)-3-(4-(Dimethylamino)phenyl)-1-(3′-fluoro[1,1′-biphenyl]-2-yl)prop-2-en-1-one] showed an IC50 [1] of 0.068 µM, an IC50 [2] of 0.055 µM and an IC50 [3] of 0.086 µM. It also gave an IC50 [4] of 0.073 µM, an IC50 [5] of 0.032 µM and an IC50 [6] of 0.044 µM. For the same compound, the IC50 [7] was 0.037 µM, the IC50 [8] was 0.092 µM and the IC50 [9] was 0.025 µM. It also gave an IC50 [10] of 0.048 µM and an IC50 [11] of 0.048 µM.

With `O=C(/C=C/c1ccc(O)c(S(=O)(=O)O)c1)c1ccccc1-c1ccc(F)cc1` [compound 22, (E)-5-(3-(4′-Fluoro[1,1′-biphenyl]-2-yl)-3-oxoprop-1-en-1-yl)-2-Hydroxybenzenesulfonic acid] the IC50 [1] was 0.063 µM, the IC50 [2] was 0.136 µM and the IC50 [3] was 0.081 µM. It also gave an IC50 [4] of 0.039 µM, an IC50 [5] of 0.021 µM and an IC50 [6] of 0.019 µM. For the same compound, the IC50 [7] was 0.02 µM, the IC50 [8] was 0.035 µM and the IC50 [9] was 0.023 µM. It also gave an IC50 [10] of 0.07 µM and an IC50 [11] of 0.038 µM.

`COc1cccc2c1C(=O)c1c(O)c3c(c(O)c1C2=O)C[C@@](O)(C(=O)CO)C[C@@H]3O[C@H]1C[C@H](N)[C@H](O)[C@H](C)O1` [DOX, doxorubicin, reference compound] showed an IC50 [1] of 0.29 µM, an IC50 [2] of 1.94 µM and an IC50 [3] of 3.42 µM. The IC50 [4] was 0.083 µM, the IC50 [5] was 14.6 µM and the IC50 [6] was 0.098 µM. The IC50 [7] was 0.17 µM, the IC50 [8] was 0.165 µM and the IC50 [9] was 0.075 µM. The IC50 [10] was 0.138 µM and the IC50 [11] was 0.291 µM.

`COc1ccc(/C=C/C(=O)c2ccccc2-c2ccc(OC)c(OC)c2OC)cc1B(O)O` [compound 8] showed an IC50 [1] of 0.247 µM, an IC50 [2] of 0.234 µM and an IC50 [3] of 0.156 µM. The IC50 [4] was 0.098 µM, the IC50 [5] was 0.075 µM and the IC50 [6] was 0.074 µM. It also gave an IC50 [7] of 0.078 µM, an IC50 [8] of 0.118 µM and an IC50 [9] of 0.086 µM. It also gave an IC50 [10] of 0.114 µM and an IC50 [11] of 0.064 µM.

Compound `COc1ccc(/C=C/C(=O)c2ccccc2-c2ccc(F)cc2)cc1S(=O)(=O)O` [compound 24, (E)-5-(3-(4′-Fluoro[1,1′-biphenyl]-2-yl)-3-oxoprop-1-en-1-yl)-2-methoxy benzenesulfonic acid] has an IC50 [1] of 0.093 µM, an IC50 [2] of 0.061 µM and an IC50 [3] of 0.085 µM. For the same compound, the IC50 [4] was 0.015 µM, the IC50 [5] was 0.008 µM and the IC50 [6] was 0.014 µM. It also gave an IC50 [7] of 0.013 µM, an IC50 [8] of 0.017 µM and an IC50 [9] of 0.018 µM. It also gave an IC50 [10] of 0.055 µM and an IC50 [11] of 0.02 µM.

For `O=C(/C=C/c1cccc(O)c1)c1ccccc1-c1cccc(F)c1` [compound 12, (E)-1-(3′-Fluoro[1,1′-biphenyl]-2-yl)-3-(3-hydroxy)prop-2-en-1-one], the IC50 [1] was 0.317 µM, the IC50 [2] was 0.13 µM and the IC50 [3] was 0.117 µM. It also gave an IC50 [4] of 0.039 µM, an IC50 [5] of 0.026 µM and an IC50 [6] of 0.048 µM. The IC50 [7] was 0.044 µM, the IC50 [8] was 0.036 µM and the IC50 [9] was 0.055 µM. For the same compound, the IC50 [10] was 0.087 µM and the IC50 [11] was 0.044 µM.

Work on `O=C(/C=C/c1ccc(N(c2ccccc2)c2ccccc2)cc1)c1ccccc1-c1cccc(F)c1` [compound 17, (E)-1-(3′-Fluoro[1,1′-biphenyl]-2-yl)-3-(4-(diphenylamino)phenyl)prop-2-en-1-one] yielded an IC50 [1] of 0.165 µM, an IC50 [2] of 0.158 µM and an IC50 [3] of 0.176 µM. For the same compound, the IC50 [4] was 0.133 µM, the IC50 [5] was 0.066 µM and the IC50 [6] was 0.051 µM. The IC50 [7] was 0.093 µM, the IC50 [8] was 0.137 µM and the IC50 [9] was 0.043 µM. It also gave an IC50 [10] of 0.123 µM and an IC50 [11] of 0.074 µM.

In the case of `O=C(O)c1ccc(/C=C/C(=O)c2ccccc2-c2cccc(F)c2)cc1` [compound 18], the IC50 [1] is reported as 0.43 µM, the IC50 [2] is reported as 0.496 µM and the IC50 [3] is reported as 0.42 µM. It also gave an IC50 [4] of 0.047 µM, an IC50 [5] of 0.038 µM and an IC50 [6] of 0.047 µM. For the same compound, the IC50 [7] was 0.023 µM, the IC50 [8] was 0.068 µM and the IC50 [9] was 0.033 µM. For the same compound, the IC50 [10] was 0.116 µM and the IC50 [11] was 0.065 µM.

`COc1ccc(/C=C/C(=O)c2ccccc2-c2cccc(F)c2)cc1B(O)O` [compound 6, (E)-(5-(3-(3′-Fluoro[1,1′-biphenyl]-2-yl)-3-oxoprop-1-en-1-yl)-2-methoxyphenyl)boronic Acid] showed an IC50 [1] of 0.063 µM, an IC50 [2] of 0.124 µM and an IC50 [3] of 0.078 µM. For the same compound, the IC50 [4] was 0.062 µM, the IC50 [5] was 0.074 µM and the IC50 [6] was 0.055 µM. The IC50 [7] was 0.037 µM, the IC50 [8] was 0.054 µM and the IC50 [9] was 0.055 µM. For the same compound, the IC50 [10] was 0.083 µM and the IC50 [11] was 0.059 µM.

Work on `Nc1cccc(/C=C/C(=O)c2ccccc2-c2cccc(F)c2)c1` [compound 19, (E)-1-(3′-Fluoro[1,1′-biphenyl]-2-yl)-3-(3-aminophenyl)prop-2-en-1-one] yielded an IC50 [1] of 0.232 µM, an IC50 [2] of 0.143 µM and an IC50 [3] of 0.157 µM. It also gave an IC50 [4] of 0.038 µM, an IC50 [5] of 0.043 µM and an IC50 [6] of 0.057 µM. For the same compound, the IC50 [7] was 0.034 µM, the IC50 [8] was 0.042 µM and the IC50 [9] was 0.035 µM. It also gave an IC50 [10] of 0.092 µM and an IC50 [11] of 0.064 µM.

For `CN(C)c1ccc(/C=C/C(=O)c2ccccc2-c2cccc(F)c2)cc1O` [compound 13, (E)-1-(3′-Fluoro[1,1′-biphenyl]-2-yl)-3-(3-hydroxy-4-(Dimethylamino)phenyl)prop-2-en-1-one], the IC50 [1] was 0.069 µM, the IC50 [2] was 0.043 µM and the IC50 [3] was 0.037 µM. For the same compound, the IC50 [4] was 0.01 µM, the IC50 [5] was 0.005 µM and the IC50 [6] was 0.006 µM. It also gave an IC50 [7] of 0.009 µM, an IC50 [8] of 0.014 µM and an IC50 [9] of 0.015 µM. The IC50 [10] was 0.069 µM and the IC50 [11] was 0.011 µM.
